According to US5213962A, “Purification, detection and methods of use of protease Nexin-2” (The Regents of the University of California, priority 1992, dated 1993):

Tested on: platelets
Assay: Secretion of PN-2/βAPP from platelets after activation by agonists
Type: cell-based
Details: freshly washed platelets, 10 minutes
Description: Secretion on PN-2/βAPP from platelets after activation by the agonists collagen or thrombin was studied. Briefly, fresh platelets washed by albumin density gradient centrifugation and gel filtration were incubated for 30 minutes at 37° C. in the absence or presence of the combined metabolic inhibitors antimycin A (15 μg/ml), 2-deoxy-D-glucose (30 mM), and D-gluconic acid δ-lactone (10 mM). The platelets were then placed into a cuvette 37° C. water bath with stirring at 1,200 rpm, and collagen (20 μg/ml or α-thrombin U/ml) was added. After 10 minutes, the samples were centrifuged at 12,000×g for 4 minutes and supernatants were collected. Aliquots were removed and quantitated for PN-2/βAPP by incubation with ^125 I-EGF BP and analysis of complex formation by SDS-PAGE and autoradiography as in Example 15. Autoradiograms were aligned with dried gels; ^125 I-EGF BP:PN-2/βAPP complexes were located, excised and quantitated in a […]. Aliquots were also quantitated for platelet markers as follows: total adenine nucleotide (ADP/ATP) secretion was measured by the method of Homsen et al., Anal. Biochem., 46:489 (1972); low affinity platelet factor 4 (LA-PF4) secretion was quantitated by the method of Rucinski et al., Blood, 53:47 (1979); and cytosolic lactate dehydrogenase (LDH) loss was assessed by the procedure of Wroblewski and Ladue, Proc. Soc. Exper. […]

Substance	secretion of total PN-2/βAPP present in the platelets
collagen	approximately one-half
thrombin	approximately one-half
